# From patent US6565883B2, “Controlled release oral compositions comprising rivastigmine” (priority 1998, dated 2003)
# Test: Rivastigmine's biopharmaceutical properties in humans
# Type: in vivo
# Text: Little has been published in detail on Rivastigmine's biopharmaceutical properties in humans. […] It is subject to pre-systemic and systemic metabolism. […] Suitable test may be effected in fasted beagle dogs.
structure (smiles),measurement,setting,value
CCN(C)C(=O)Oc1cccc([C@H](C)N(C)C)c1 [Rivastigmine],absorption,,rapidly and completely absorbed
same,metabolism,"esterases, e.g., acetyl and butyryl cholinesterase",metabolised mainly through hydrolysis by esterases
same,half-life,"human, plasma",1 h
